According to patent publication US5500410A, “Substituted alkylamide derivatives of teicoplanin” (Gruppo Lepetit S.p.A., priority 1989, dated 1996):

Assays:
[1] = system: Proteus vulgaris X19H ATCC 881; assay: In vitro MIC, two-fold dilution in microtiter; format: cell-based; settings: 18-24 h at 37° C., inoculum about 10^4 CFU/ml
Protocol: (§1) Broth cultures are diluted enough so that the final inecuium is about 10^4 colony forming units/ml (CFU/ml).

[2] = system: Escherichia coli SKF 12140; assay: In vitro MIC, two-fold dilution in microtiter; format: cell-based; settings: 18-24 h at 37° C., inoculum about 10^4 CFU/ml
Protocol: as §1

[3] = system: Streptococcus pneumoniae UC 41; assay: In vitro MIC, two-fold dilution in microtiter; format: cell-based; settings: 18-24 h at 37° C., inoculum about 10^4 CFU/ml
Protocol: as §1

[4] = system: Streptococcus pyogenes C 203; assay: In vitro MIC, two-fold dilution in microtiter; format: cell-based; settings: 18-24 h at 37° C., inoculum about 10^4 CFU/ml
Protocol: as §1

[5] = system: Staphylococcus haemolyticus L 602; assay: In vitro MIC, two-fold dilution in microtiter; format: cell-based; settings: 18-24 h at 37° C., inoculum about 10^4 CFU/ml
Protocol: as §1

[6] = system: Staphylococcus epidermidis ATCC 12228; assay: In vitro MIC, two-fold dilution in microtiter; format: cell-based; settings: 18-24 h at 37° C., inoculum about 10^4 CFU/ml
Protocol: as §1

[7] = system: Pseudomonas aeruginosa ATCC 10145; assay: In vitro MIC, two-fold dilution in microtiter; format: cell-based; settings: 18-24 h at 37° C., inoculum about 10^4 CFU/ml
Protocol: as §1

[8] = system: Streptococcus faecalis ATCC 7080; assay: In vitro MIC, two-fold dilution in microtiter; format: cell-based; settings: 18-24 h at 37° C., inoculum about 10^4 CFU/ml
Protocol: as §1

[9] = system: Staphylococcus aureus TOUR; assay: In vitro MIC, two-fold dilution in microtiter; format: cell-based; settings: 18-24 h at 37° C., inoculum about 10^4 CFU/ml
Protocol: as §1

[10] = system: Pseudomonas aeruginosa Strain No. L 1348; assay: MIC against multi-resistant clinical isolates of Pseudomonas aeruginosa; format: cell-based; settings: multi-resistant clinical isolate
Protocol: as §1
(§2) The activity against some multi-resistant clinical isolates of Pseudomonas aeruginosa of compounds 22, 23, 25, 26, 27 and 29 is shown in Table II.

[11] = system: Pseudomonas aeruginosa Strain No. L 1498; assay: as above; format: cell-based; settings: multi-resistant clinical isolate
Protocol: as §1, §2

[12] = system: Pseudomonas aeruginosa Strain No. L 1533; assay: as above; format: cell-based; settings: multi-resistant clinical isolate
Protocol: as §1, §2

[13] = system: Pseudomonas aeruginosa Strain No. L 1138; assay: as above; format: cell-based; settings: multi-resistant clinical isolate
Protocol: as §1, §2

Strep. pyogenes C 203 = assay: In vivo test in mice septicemically infected with Strep. pyogenes C 203; settings: Strep. pyogenes C 203 septicemia
Text: The ED50 values (mg/kg) of representative compounds of the invention in in vivo tests in mice septicemically infected with Strep. pyogenes. C 203, obtained according to the procedure described by V. Arioli et al. (Journal of Antibiotics 29, 511; 1976) are given in table III.

E. coli = assay: Mice septicemically infected with E. coli; format: in vivo; settings: E. coli septicemia

Compound	MIC Proteus vulgaris X19H ATCC 881 [1]	MIC Escherichia coli SKF 12140 [2]	MIC Streptococcus pneumoniae UC 41 [3]	MIC Streptococcus pyogenes C 203 [4]	MIC Staphylococcus haemolyticus L 602 [5]	MIC Staphylococcus epidermidis ATCC 12228 [6]	MIC Pseudomonas aeruginosa ATCC 10145 [7]	MIC Streptococcus faecalis ATCC 7080 [8]	MIC Staphylococcus aureus TOUR [9]	MIC Pseudomonas aeruginosa L 1348 [10]	MIC Pseudomonas aeruginosa L 1498 [11]	MIC Pseudomonas aeruginosa L 1533 [12]	MIC Pseudomonas aeruginosa L 1138 [13]	ED50 p.o. (Strep. pyogenes C 203)	ED50 s.c. (Strep. pyogenes C 203)	survivors/treated (E. coli; i.v. administration, 40 mg/kg)	ED50 s.c. (E. coli; s.c. administration)
NCCN(CCN)CCNC(=O)C1NC(=O)C2NC(=O)C(NC(=O)C3NC(=O)C4NC(=O)C(Cc5ccc(c(Cl)c5)Oc5cc3cc(c5O)Oc3ccc(cc3Cl)C2O)NC(=O)C(N)c2ccc(O)c(c2)Oc2cc(O)cc4c2)c2ccc(O)c(c2)-c2c(O)cc(O)cc21 (stereo not shown) [Compound 29]	32 microgram/ml	1 microgram/ml	0.12 microgram/ml	0.06 microgram/ml	0.06 microgram/ml	0.016 microgram/ml	8 microgram/ml	0.12 microgram/ml	0.06 microgram/ml	8 microgram/ml	64 microgram/ml	128 microgram/ml	64 microgram/ml	–	–	–	–
NCCCNCCCNCCCNC(=O)C1NC(=O)C2NC(=O)C(NC(=O)C3NC(=O)C4NC(=O)C(Cc5ccc(c(Cl)c5)Oc5cc3cc(c5O)Oc3ccc(cc3Cl)C2O)NC(=O)C(N)c2ccc(O)c(c2)Oc2cc(O)cc4c2)c2ccc(O)c(c2)-c2c(O)cc(O)cc21 (stereo not shown) [Compound 26]	64 microgram/ml	0.5 microgram/ml	0.12 microgram/ml	0.06 microgram/ml	0.06 microgram/ml	0.016 microgram/ml	2 microgram/ml	0.25 microgram/ml	0.06 microgram/ml	4 microgram/ml	64 microgram/ml	64 microgram/ml	32 microgram/ml	–	–	–	–
CC(=O)NC1C(OC2c3ccc(c(Cl)c3)Oc3cc4cc(c3OC3OC(CO)C(O)C(O)C3NC(=O)CCCCCCC(C)C)Oc3ccc(cc3Cl)CC3NC(=O)C(N)c5ccc(O)c(c5)Oc5cc(O)cc(c5)C(NC3=O)C(=O)NC4C(=O)NC3C(=O)NC2C(=O)NC(C(=O)NCCCNCCCNCCCN)c2cc(O)cc(OC4OC(CO)C(O)C(O)C4O)c2-c2cc3ccc2O)OC(CO)C(O)C1O (stereo not shown) [Compound 9]	> 128 microgram/ml	> 128 microgram/ml	0.12 microgram/ml	0.06 microgram/ml	0.12 microgram/ml	0.06 microgram/ml	64 microgram/ml	0.12 microgram/ml	0.12 microgram/ml	–	–	–	–	about 80 mg/kg	0.06 mg/kg	–	–
CC(=O)N[C@H]1[C@H](OC2c3ccc(c(Cl)c3)Oc3cc4cc(c3O[C@@H]3O[C@H](CO)[C@@H](O)[C@H](O)[C@H]3NC(=O)CCCCCCC(C)C)Oc3ccc(cc3Cl)CC3NC(=O)C(N)c5ccc(O)c(c5)Oc5cc(O)cc(c5)C(NC3=O)C(=O)NC4C(=O)NC3C(=O)NC2C(=O)NC(C(=O)NCCNCCN)c2cc(O)cc(O[C@H]4O[C@H](CO)[C@@H](O)[C@H](O)[C@@H]4O)c2-c2cc3ccc2O)O[C@H](CO)[C@@H](O)[C@@H]1O (stereo partly shown) [Compound 2]	–	–	–	–	–	–	–	–	–	–	–	–	–	about 60 mg/kg	0.09 mg/kg	–	–
NCCCNCCCNC(=O)C1NC(=O)C2NC(=O)C(NC(=O)C3NC(=O)C4NC(=O)C(Cc5ccc(c(Cl)c5)Oc5cc3cc(c5O)Oc3ccc(cc3Cl)C2O)NC(=O)C(N)c2ccc(O)c(c2)Oc2cc(O)cc4c2)c2ccc(O)c(c2)-c2c(O)cc(O)cc21 (stereo not shown) [Compound 22]	32 microgram/ml	1 microgram/ml	0.12 microgram/ml	0.12 microgram/ml	0.12 microgram/ml	0.03 microgram/ml	8 microgram/ml	0.12 microgram/ml	0.06 microgram/ml	4 microgram/ml	64 microgram/ml	64 microgram/ml	64 microgram/ml	–	–	–	–
NCCCNCCNCCCNC(=O)C1NC(=O)C2NC(=O)C(NC(=O)C3NC(=O)C4NC(=O)C(Cc5ccc(c(Cl)c5)Oc5cc3cc(c5O)Oc3ccc(cc3Cl)C2O)NC(=O)C(N)c2ccc(O)c(c2)Oc2cc(O)cc4c2)c2ccc(O)c(c2)-c2c(O)cc(O)cc21 (stereo not shown) [Compound 25]	64 microgram/ml	2 microgram/ml	0.12 microgram/ml	0.06 microgram/ml	0.12 microgram/ml	0.06 microgram/ml	16 microgram/ml	0.12 microgram/ml	0.12 microgram/ml	4 microgram/ml	64 microgram/ml	64 microgram/ml	32 microgram/ml	–	–	–	–
CC(=O)NC1C(OC2c3ccc(c(Cl)c3)Oc3cc4cc(c3OC3OC(CO)C(O)C(O)C3NC(=O)CCCCCCC(C)C)Oc3ccc(cc3Cl)CC3NC(=O)C(N)c5ccc(O)c(c5)Oc5cc(O)cc(c5)C(NC3=O)C(=O)NC4C(=O)NC3C(=O)NC2C(=O)NC(C(=O)NCCCNCCCCNCCCN)c2cc(O)cc(OC4OC(CO)C(O)C(O)C4O)c2-c2cc3ccc2O)OC(CO)C(O)C1O (stereo not shown) [Compound 11]	128 microgram/ml	64 microgram/ml	0.12 microgram/ml	0.06 microgram/ml	0.12 microgram/ml	0.06 microgram/ml	32 microgram/ml	0.12 microgram/ml	0.12 microgram/ml	–	–	–	–	81.2 mg/kg	0.03 mg/kg	–	–
NCCCN(CCCN)CCCNC(=O)C1NC(=O)C2NC(=O)C(NC(=O)C3NC(=O)C4NC(=O)C(Cc5ccc(c(Cl)c5)Oc5cc3cc(c5O)Oc3ccc(cc3Cl)C2O)NC(=O)C(N)c2ccc(O)c(c2)Oc2cc(O)cc4c2)c2ccc(O)c(c2)-c2c(O)cc(O)cc21 (stereo not shown) [Compound 50]	128 microgram/ml	1 microgram/ml	0.12 microgram/ml	0.06 microgram/ml	0.06 microgram/ml	0.008 microgram/ml	8 microgram/ml	0.12 microgram/ml	0.12 microgram/ml	–	–	–	–	–	–	7/8	≤ 38 mg/kg
NCCCNCCCCNCCCNC(=O)C1NC(=O)C2NC(=O)C(NC(=O)C3NC(=O)C4NC(=O)C(Cc5ccc(c(Cl)c5)Oc5cc3cc(c5O)Oc3ccc(cc3Cl)C2O)NC(=O)C(N)c2ccc(O)c(c2)Oc2cc(O)cc4c2)c2ccc(O)c(c2)-c2c(O)cc(O)cc21 (stereo not shown) [Compound 27]	64 microgram/ml	2 microgram/ml	0.12 microgram/ml	0.06 microgram/ml	0.12 microgram/ml	0.06 microgram/ml	8 microgram/ml	0.12 microgram/ml	0.06 microgram/ml	4 microgram/ml	64 microgram/ml	64 microgram/ml	64 microgram/ml	–	–	–	–
NCCCNCCCCCCCCCCNCCCNC(=O)C1NC(=O)C2NC(=O)C(NC(=O)C3NC(=O)C4NC(=O)C(Cc5ccc(c(Cl)c5)Oc5cc3cc(c5O)Oc3ccc(cc3Cl)C2O)NC(=O)C(N)c2ccc(O)c(c2)Oc2cc(O)cc4c2)c2ccc(O)c(c2)-c2c(O)cc(O)cc21 (stereo not shown) [Compound 55]	> 128 microgram/ml	> 128 microgram/ml	0.12 microgram/ml	0.12 microgram/ml	1 microgram/ml	0.12 microgram/ml	> 128 microgram/ml	1 microgram/ml	1 microgram/ml	–	–	–	–	–	–	–	–
